Assay results published in ChEMBL document CHEMBL6134848, “Deuteration Strategy-Inspired Design of Novel Diarylpyrimidine Derivatives as Potent Non-Nucleoside Reverse Transcriptase Inhibitors Featuring Improved Efficacy, Selectivity, and Druggability” (J Med Chem, 2025).

Legend:
[1] = tested on: Human immunodeficiency virus 1; experiment: Antiviral activity against drug-resistant HIV-1 harboring RT E138K mutant infected in human MT4 cells assessed as protection against virus-induced cytopathicity measured after 5 days post-infection by MTT assay; format: functional, organism-based; settings: Human immunodeficiency virus 1, MT4, 120 h
[2] = Cmax in Sprague-Dawley rat at 1 mg/kg, iv measured for 0.083 to 24 hrs by LC-MS/MS analysis; format: ADME, organism-based; settings: in vivo, time 0.083-24 hrs
[3] = Metabolic stability in dog liver microsomes assessed as half life at 1 uM measured up to 45 mins by LC/MS/MS analysis; format: ADME, Canis lupus familiaris, Microsome; settings: microsomes, 0.75 h, 1 µM
[4] = target: Human immunodeficiency virus type 1 reverse transcriptase (Human immunodeficiency virus 1, UniProt Q72547); experiment: Inhibition of recombinant wild type HIV-1 reverse transcriptase incubated for 40 mins in presence of poly(rA) template/oligo(dT)16 primer by Pico-Green dye based analysis
[5] = Drug metabolism in dog liver microsomes assessed as metabolic fraction at 1 uM measured up to 45 mins by LC/MS/MS analysis; format: ADME, Canis lupus familiaris, Microsome; settings: microsomes, 0.75 h, 1 µM
[6] = MRT (0 to t) in Sprague-Dawley rat at 1 mg/kg, iv measured for 0.083 to 24 hrs by LC-MS/MS analysis; format: ADME, organism-based; settings: in vivo, time 0.083-24 hrs

SMILES: [2H]C([2H])([2H])c1cc(C#N)cc(C([2H])([2H])[2H])c1Oc1nc(NC2CCN(Cc3ccc(S(N)(=O)=O)cc3)CC2)nc2ccsc12
- EC50 [1]: 7.75 nM
- Cmax [2]: 1240 ng/mL
- t1/2 [3]: 20.4 min
- IC50 [4]: 190 nM
- Fm [5]: 17.3%
- MRT last [6]: 49.2 min
